Measurements reported in BigSolDB 2.1.

Cl.Cl.Fc1ccc(C(c2ccc(F)cc2)N2CCN(C/C=C/c3ccccc3)CC2)cc1
solubility (mole fraction)
Conditions | in acetone | in acetonitrile | in ethanol | in ethyl acetate | in isobutanol | in isopropanol | in methanol | in methyl acetate | in n-butanol | in n-propanol
293.15 K | 0.00271 | 0.00219 | 0.00522 | 0.00146 | 0.00186 | 0.0026 | 0.00604 | 0.00133 | 0.00185 | 0.00472
298.15 K | 0.00338 | 0.00275 | 0.00649 | 0.00184 | 0.00236 | 0.00328 | 0.0076 | 0.00168 | 0.00236 | 0.00587
303.15 K | 0.00422 | 0.00343 | 0.00792 | 0.00229 | 0.00296 | 0.00406 | 0.00934 | 0.00211 | 0.00296 | 0.00714
308.15 K | 0.00518 | 0.00428 | 0.00975 | 0.00285 | 0.00371 | 0.00501 | 0.0115 | 0.00263 | 0.00372 | 0.00877
313.15 K | 0.00638 | 0.00528 | 0.0119 | 0.00353 | 0.00462 | 0.00618 | 0.0139 | 0.00326 | 0.00464 | 0.0108
318.15 K | 0.0078 | 0.00651 | 0.0145 | 0.00434 | 0.00573 | 0.00756 | 0.017 | 0.004 | 0.00575 | 0.013
323.15 K | 0.00948 | 0.008 | 0.0176 | 0.0053 | 0.00711 | 0.00919 | 0.0207 | 0.00494 | 0.00712 | 0.0157
328.15 K | 0.0115 | 0.00977 | 0.0211 | 0.00644 | 0.00873 | 0.0112 | 0.025 | 0.00603 | 0.00875 | 0.0189
333.15 K | 0.0139 | 0.0119 | 0.0252 | 0.00782 | 0.0106 | 0.0136 | 0.0298 | 0.00736 | 0.0107 | 0.0225
